# How the values were obtained:
# [1] = test system: Fibroblast growth factor receptor 3 (Homo sapiens), P22607 [K650E]; experiment: FGFR3 K650E Kinase screen; details: Compound concentration 1.0 uM
# [2] = target: Acetylcholine receptor subunit alpha (Homo sapiens) (UniProt P02708); experiment: Inhibition of Nicotinic Acetylcholine D1, Bungarotoxin at 10 µM in the Eurofins-Panlabs radioligand binding assay (Eurofins_assay_258700); details: Compound concentration 10.0 uM
# [3] = test system: Proto-oncogene tyrosine-protein kinase receptor Ret (Homo sapiens), P07949 [Y791F]; experiment: RET Y791F Kinase screen; details: Compound concentration 1.0 uM
# [4] = target: STE20-like serine/threonine-protein kinase (Homo sapiens) (UniProt Q9H2G2); experiment: SLK Kinase screen; details: Compound concentration 1.0 uM
# [5] = target: MAP kinase-activated protein kinase 2 (Homo sapiens) (UniProt P49137); experiment: MAPKAPK2 Kinase screen; details: Compound concentration 1.0 uM
# [6] = target: Ribosomal protein S6 kinase beta-1 (Homo sapiens) (UniProt P23443); experiment: RPS6KB1 (p70S6K) Kinase screen; details: Compound concentration 1.0 uM
# [7] = target: Melanin-concentrating hormone receptor 1 (Homo sapiens) (UniProt Q99705); experiment: Melanin-Concentrating Hormone MCH1 (SLC1) Eurofins-Panlabs radioligand binding assay; parameters: ligand concentration 0.05 nM; details: Compound concentration 10.0 uM
# [8] = target: T1, Alpha-1A adrenergic receptor (Homo sapiens) (UniProt P35348); details: Rattus norvegicus; Compound concentration 10.0 uM
# T1 sequence (whole entry): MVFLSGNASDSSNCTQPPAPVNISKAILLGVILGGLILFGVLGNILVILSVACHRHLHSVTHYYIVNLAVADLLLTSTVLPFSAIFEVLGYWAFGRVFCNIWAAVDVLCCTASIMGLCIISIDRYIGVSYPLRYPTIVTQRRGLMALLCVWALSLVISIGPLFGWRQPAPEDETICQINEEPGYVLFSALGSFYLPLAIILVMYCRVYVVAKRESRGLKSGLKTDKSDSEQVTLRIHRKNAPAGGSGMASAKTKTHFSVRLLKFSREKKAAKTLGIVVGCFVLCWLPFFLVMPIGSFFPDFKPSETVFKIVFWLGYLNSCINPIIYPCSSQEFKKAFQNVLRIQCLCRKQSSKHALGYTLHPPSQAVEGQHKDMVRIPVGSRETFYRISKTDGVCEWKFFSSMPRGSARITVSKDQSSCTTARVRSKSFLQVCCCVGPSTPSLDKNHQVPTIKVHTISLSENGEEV
# [9] = target: T2, Serine/threonine-protein kinase DCLK2 (Homo sapiens) (UniProt Q8N568); experiment: DCAMKL2 (DCK2) Kinase screen; details: Compound concentration 1.0 uM
# T2 sequence (whole entry): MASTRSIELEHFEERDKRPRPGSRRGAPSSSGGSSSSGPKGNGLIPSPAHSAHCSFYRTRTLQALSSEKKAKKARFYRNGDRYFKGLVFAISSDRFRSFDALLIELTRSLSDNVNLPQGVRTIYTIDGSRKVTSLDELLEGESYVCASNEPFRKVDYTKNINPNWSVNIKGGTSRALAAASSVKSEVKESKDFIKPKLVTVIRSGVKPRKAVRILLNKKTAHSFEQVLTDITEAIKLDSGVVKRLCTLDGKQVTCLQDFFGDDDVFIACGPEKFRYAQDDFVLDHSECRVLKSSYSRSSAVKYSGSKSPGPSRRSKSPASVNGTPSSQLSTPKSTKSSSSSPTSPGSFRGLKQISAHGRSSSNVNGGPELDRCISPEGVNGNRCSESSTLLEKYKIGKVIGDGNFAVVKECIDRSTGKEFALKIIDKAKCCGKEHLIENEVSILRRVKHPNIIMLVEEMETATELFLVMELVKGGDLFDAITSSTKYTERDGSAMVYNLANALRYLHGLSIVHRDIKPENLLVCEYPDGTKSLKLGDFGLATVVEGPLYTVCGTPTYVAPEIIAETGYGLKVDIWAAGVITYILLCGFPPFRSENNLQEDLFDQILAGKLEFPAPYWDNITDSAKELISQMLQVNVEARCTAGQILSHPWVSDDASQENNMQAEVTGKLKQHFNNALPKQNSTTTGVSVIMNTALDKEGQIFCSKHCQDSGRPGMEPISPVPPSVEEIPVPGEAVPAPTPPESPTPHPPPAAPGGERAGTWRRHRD
# [10] = target: Casein kinase I isoform gamma-1 (Homo sapiens) (UniProt Q9HCP0); experiment: CSNK1G1 (CK1 gamma 1) Kinase screen; details: Compound concentration 1.0 uM
# Caspase-8 (Homo sapiens) = Caspase-8 (Homo sapiens) (UniProt Q14790); experiment: Peptidase, CASP8 (Caspase 8) Eurofins-Panlabs enzyme assay; details: Compound concentration 10.0 uM
# [11] = target: T3, Protein kinase C epsilon type (Homo sapiens) (UniProt Q02156); experiment: PRKCE (PKC epsilon) Kinase screen; details: Compound concentration 1.0 uM
# T3 sequence (whole entry): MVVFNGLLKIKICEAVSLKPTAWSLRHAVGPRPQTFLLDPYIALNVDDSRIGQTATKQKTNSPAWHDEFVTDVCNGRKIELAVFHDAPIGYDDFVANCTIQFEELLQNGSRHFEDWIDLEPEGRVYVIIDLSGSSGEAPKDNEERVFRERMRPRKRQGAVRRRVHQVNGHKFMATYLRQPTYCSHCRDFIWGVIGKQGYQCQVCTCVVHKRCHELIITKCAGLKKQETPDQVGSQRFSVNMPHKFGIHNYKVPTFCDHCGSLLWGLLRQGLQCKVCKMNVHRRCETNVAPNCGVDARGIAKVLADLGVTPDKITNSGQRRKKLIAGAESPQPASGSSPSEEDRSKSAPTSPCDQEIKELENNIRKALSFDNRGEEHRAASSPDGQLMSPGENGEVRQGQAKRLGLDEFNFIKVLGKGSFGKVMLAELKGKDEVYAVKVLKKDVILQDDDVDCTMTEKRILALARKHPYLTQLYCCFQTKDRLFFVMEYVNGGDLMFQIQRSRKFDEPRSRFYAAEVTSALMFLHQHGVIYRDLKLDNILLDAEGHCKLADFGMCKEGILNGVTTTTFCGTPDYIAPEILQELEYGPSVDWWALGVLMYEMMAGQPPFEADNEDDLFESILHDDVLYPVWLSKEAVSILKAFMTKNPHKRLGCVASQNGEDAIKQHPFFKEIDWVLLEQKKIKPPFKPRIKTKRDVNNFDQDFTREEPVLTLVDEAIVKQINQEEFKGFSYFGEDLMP
# Homo sapiens = species: Homo sapiens; experiment: Chemokine CCR1 Eurofins-Panlabs radioligand binding assay; parameters: ligand concentration 0.1 nM; details: Compound concentration 10.0 uM
# [12] = target: 5-hydroxytryptamine receptor 2B (Homo sapiens, UniProt P41595)
# [13] = target: Sodium-dependent noradrenaline transporter (Homo sapiens, UniProt P23975)
# [14] = target: Ribosomal protein S6 kinase alpha-4 (Homo sapiens) (UniProt O75676); experiment: RPS6KA4 (MSK2) Kinase screen; details: Compound concentration 1.0 uM
# [15] = target: NT-3 growth factor receptor (Homo sapiens) (UniProt Q16288); experiment: NTRK3 (TRKC) Kinase screen; details: Compound concentration 1.0 uM
# NT-3 growth factor receptor (Homo sapiens), sequence (Q16288 32-839 limits assumed): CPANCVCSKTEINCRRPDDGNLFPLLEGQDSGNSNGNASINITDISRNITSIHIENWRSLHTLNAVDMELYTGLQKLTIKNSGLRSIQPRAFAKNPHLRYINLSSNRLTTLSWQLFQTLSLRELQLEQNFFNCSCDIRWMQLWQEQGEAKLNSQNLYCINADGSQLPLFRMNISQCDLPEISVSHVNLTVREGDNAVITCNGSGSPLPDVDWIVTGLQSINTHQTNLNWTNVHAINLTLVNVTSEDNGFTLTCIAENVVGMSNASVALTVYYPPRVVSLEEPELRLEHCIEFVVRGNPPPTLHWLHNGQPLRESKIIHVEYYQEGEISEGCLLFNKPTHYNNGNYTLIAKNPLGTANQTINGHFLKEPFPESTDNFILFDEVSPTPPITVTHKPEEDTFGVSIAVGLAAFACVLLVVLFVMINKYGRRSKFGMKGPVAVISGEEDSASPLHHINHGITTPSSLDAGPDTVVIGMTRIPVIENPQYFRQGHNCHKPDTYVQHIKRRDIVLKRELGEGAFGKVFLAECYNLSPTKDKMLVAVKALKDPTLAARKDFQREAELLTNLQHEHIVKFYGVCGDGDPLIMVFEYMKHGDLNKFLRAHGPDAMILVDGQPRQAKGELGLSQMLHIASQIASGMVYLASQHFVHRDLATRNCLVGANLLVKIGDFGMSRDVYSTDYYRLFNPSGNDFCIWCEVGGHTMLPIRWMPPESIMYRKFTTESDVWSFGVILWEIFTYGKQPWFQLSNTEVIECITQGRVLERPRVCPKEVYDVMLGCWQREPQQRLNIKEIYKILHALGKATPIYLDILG
# 5-hydroxytryptamine receptor 2B, sequence (P41595 whole entry): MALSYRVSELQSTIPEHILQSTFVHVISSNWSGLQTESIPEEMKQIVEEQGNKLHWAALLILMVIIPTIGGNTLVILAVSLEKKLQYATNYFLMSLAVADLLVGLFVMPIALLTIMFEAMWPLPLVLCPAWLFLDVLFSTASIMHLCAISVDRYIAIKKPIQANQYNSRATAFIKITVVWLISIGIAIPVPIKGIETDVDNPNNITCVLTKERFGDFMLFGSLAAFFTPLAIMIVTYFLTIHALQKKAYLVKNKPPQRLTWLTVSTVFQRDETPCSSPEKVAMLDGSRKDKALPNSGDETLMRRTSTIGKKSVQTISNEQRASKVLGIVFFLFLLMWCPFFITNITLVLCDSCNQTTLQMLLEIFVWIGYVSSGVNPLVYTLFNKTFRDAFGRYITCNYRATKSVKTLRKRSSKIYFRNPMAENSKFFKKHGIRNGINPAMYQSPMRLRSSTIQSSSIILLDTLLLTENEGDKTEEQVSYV
# Sodium-dependent noradrenaline transporter, sequence (P23975 whole entry): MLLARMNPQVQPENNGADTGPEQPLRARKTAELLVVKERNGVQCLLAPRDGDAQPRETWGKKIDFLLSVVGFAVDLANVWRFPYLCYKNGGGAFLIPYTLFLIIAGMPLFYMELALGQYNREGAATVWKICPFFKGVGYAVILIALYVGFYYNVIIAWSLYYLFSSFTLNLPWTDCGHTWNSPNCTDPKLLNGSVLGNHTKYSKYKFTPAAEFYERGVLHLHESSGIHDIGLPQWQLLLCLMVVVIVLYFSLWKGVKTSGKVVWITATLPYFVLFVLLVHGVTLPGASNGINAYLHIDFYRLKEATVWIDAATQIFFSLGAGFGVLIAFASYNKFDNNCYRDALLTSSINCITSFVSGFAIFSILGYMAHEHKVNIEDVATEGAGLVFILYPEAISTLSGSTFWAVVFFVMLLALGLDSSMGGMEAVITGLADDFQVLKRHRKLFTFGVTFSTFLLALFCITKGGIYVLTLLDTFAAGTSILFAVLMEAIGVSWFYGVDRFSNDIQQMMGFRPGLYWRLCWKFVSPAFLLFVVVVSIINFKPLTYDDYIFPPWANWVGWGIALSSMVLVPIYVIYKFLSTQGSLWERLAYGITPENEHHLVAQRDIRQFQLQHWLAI
# Caspase-8 (Homo sapiens), sequence (Q14790 217-374 limits assumed): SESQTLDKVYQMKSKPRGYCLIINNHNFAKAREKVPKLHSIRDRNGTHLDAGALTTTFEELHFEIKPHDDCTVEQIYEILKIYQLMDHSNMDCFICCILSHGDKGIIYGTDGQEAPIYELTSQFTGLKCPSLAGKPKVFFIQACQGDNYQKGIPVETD
# Caspase-8 (Homo sapiens), sequence (Q14790 385-479 limits assumed): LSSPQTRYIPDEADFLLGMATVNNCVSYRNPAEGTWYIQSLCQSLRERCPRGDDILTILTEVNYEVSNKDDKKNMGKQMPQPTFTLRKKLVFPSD
# Fibroblast growth factor receptor 3 (Homo sapiens), P22607 [K650E], sequence (P22607 whole entry K650E): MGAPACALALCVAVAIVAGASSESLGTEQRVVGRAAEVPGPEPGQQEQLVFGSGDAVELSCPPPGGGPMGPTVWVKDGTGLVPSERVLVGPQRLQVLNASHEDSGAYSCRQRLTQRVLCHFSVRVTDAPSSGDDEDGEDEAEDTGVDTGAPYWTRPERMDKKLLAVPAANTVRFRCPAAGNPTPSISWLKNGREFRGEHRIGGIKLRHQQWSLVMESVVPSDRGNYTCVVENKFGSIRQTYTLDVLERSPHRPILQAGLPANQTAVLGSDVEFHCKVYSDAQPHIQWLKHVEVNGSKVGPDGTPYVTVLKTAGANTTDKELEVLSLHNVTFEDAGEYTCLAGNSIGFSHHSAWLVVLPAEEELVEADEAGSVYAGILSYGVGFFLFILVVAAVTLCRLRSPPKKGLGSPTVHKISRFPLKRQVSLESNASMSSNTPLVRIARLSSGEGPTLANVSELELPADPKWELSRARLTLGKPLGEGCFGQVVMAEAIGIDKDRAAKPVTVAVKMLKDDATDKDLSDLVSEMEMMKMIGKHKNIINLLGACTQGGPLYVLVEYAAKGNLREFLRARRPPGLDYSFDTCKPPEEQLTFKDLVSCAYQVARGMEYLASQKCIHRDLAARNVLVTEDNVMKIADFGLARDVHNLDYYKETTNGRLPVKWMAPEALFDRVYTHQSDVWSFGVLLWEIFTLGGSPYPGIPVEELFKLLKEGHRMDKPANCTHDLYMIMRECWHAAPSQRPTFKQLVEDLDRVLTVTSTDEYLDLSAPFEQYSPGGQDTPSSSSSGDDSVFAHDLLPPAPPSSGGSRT
# Acetylcholine receptor subunit alpha (Homo sapiens), sequence (P02708 whole entry): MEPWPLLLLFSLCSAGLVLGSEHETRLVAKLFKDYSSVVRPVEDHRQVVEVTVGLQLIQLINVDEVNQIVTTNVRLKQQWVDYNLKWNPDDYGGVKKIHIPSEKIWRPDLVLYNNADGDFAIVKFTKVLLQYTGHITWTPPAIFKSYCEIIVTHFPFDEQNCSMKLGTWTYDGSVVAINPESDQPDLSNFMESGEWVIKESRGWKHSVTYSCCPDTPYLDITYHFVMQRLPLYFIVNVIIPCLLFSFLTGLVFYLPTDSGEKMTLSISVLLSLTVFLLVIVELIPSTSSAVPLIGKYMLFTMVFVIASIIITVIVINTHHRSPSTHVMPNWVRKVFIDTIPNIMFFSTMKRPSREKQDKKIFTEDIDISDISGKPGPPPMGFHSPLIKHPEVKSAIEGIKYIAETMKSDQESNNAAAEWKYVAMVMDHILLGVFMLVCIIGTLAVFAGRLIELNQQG
# Melanin-concentrating hormone receptor 1 (Homo sapiens), sequence (Q99705 whole entry): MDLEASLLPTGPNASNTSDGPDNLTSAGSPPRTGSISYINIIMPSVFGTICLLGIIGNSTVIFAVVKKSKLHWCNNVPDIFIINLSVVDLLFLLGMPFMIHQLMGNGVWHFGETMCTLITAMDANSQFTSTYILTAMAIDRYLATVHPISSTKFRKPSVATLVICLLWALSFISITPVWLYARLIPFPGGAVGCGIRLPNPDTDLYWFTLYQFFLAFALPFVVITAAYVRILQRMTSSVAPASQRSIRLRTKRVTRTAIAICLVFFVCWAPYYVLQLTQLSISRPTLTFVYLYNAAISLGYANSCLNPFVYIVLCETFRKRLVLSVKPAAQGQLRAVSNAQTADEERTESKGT
# MAP kinase-activated protein kinase 2 (Homo sapiens), sequence (P49137 whole entry, looked up): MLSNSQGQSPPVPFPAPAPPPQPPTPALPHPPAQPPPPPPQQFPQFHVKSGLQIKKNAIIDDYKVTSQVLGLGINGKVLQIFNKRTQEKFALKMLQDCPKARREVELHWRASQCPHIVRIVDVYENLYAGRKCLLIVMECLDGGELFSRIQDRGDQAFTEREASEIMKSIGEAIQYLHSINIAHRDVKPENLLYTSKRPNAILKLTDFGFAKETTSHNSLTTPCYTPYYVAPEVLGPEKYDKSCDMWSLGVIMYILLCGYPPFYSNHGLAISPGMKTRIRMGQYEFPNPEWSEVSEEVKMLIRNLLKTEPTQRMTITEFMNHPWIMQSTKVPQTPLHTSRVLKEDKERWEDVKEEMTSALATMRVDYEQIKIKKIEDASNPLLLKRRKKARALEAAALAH
# Ribosomal protein S6 kinase beta-1 (Homo sapiens), sequence (P23443 whole entry, looked up): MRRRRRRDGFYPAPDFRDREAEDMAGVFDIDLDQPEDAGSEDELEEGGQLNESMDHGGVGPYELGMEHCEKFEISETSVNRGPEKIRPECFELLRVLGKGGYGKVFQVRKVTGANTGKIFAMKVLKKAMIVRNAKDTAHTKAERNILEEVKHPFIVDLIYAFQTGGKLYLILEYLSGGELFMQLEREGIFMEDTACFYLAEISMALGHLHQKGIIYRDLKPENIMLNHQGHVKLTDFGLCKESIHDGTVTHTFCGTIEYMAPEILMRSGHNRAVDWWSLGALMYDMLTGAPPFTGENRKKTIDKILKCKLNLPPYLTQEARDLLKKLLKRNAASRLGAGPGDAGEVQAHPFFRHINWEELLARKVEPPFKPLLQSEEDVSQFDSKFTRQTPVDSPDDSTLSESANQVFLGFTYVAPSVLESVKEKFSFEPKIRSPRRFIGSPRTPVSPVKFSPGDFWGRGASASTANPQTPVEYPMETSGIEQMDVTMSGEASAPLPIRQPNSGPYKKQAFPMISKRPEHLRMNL
compound,measurement,setting,value
C[C@@H]1CN(c2cc(-c3n[nH]c4ccc(OC5(C)CC5)cc34)ncn2)C[C@H](C)O1 [MLi-2],inhibition,[1],3.43%
same,inhibition,[2],6%
same,inhibition,[3],5.35%
same,inhibition,[4],1.5%
same,inhibition,[5],2.35%
same,inhibition,[6],5.26%
same,inhibition,[7],1%
same,inhibition,[8],9%
same,inhibition,[9],5.61%
same,inhibition,[10],-1.82%
same,inhibition,Caspase-8 (Homo sapiens),7%
same,inhibition,[11],4.4%
same,inhibition,Homo sapiens,-3%
same,inhibition,[12]; Compound concentration 0.01 uM,-7%
same,inhibition,[12]; Compound concentration 0.1 uM,8%
same,inhibition,[12]; Compound concentration 1.0 uM,44%
same,inhibition,[12]; Compound concentration 10.0 uM,95%
same,inhibition,[13]; Compound concentration 0.01 uM,6%
same,inhibition,[13]; Compound concentration 0.1 uM,8%
same,inhibition,[13]; Compound concentration 1.0 uM,15%
same,inhibition,[13]; Compound concentration 10.0 uM,77%
same,inhibition,[14],7.68%
same,inhibition,[15],14.9%
